Reference: the supplement of paper PMC10307832

Legend:
Assay in all cases: relative viability (nuclei count vs DMSO), 5 days (fraction); higher = more cells survive
[1] = compound: CO[C@@H]1[C@H](N(C)C(=O)c2ccccc2)C[C@H]2O[C@]1(C)n1c3ccccc3c3c4c(c5c6ccccc6n2c5c31)C(=O)NC4 [Midostaurin] + CC1(C)CCC(c2ccc(Cl)cc2)=C(CN2CCN(c3ccc(C(=O)NS(=O)(=O)c4ccc(N[C@H](CCN5CCOCC5)CSc5ccccc5)c(S(=O)(=O)C(F)(F)F)c4)cc3)CC2)C1 [Navitoclax] (partner 0.5 µM)
Procedure, shortened: (§1)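 Medians of duplicate plates are given as relative viability. That measure is the nuclei count in treated wells divided by the count in vehicle wells. Counts were taken on 4× images of lung cancer cell lines in 1536-well plates, 5 days after pin-tool dosing the day after seeding with one drug alone or a fixed anchor-drug dose plus five library-drug doses (not always all listed) in √10 steps.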

[2] = compound: COc1cc(-c2nn([C@H]3CC[C@H](N4CCN(C(C)=O)CC4)CC3)c3ncnc(N)c23)ccc1NC(=O)c1cc2ccccc2n1C + N=C(N)NC(=N)NCCc1ccccc1 [Phenformin] (partner 250 µM)
Procedure, shortened: as §1

[3] = compound: CO[C@@H]1[C@H](N(C)C(=O)c2ccccc2)C[C@H]2O[C@]1(C)n1c3ccccc3c3c4c(c5c6ccccc6n2c5c31)C(=O)NC4 [Midostaurin] + CC(C)C[C@H](NC(=O)[C@H](Cc1ccccc1)NC(=O)c1cnccn1)B(O)O [Bortezomib] (partner 0.002 µM)
Procedure, shortened: as §1

[4] = compound: COc1cc(-c2nn([C@H]3CC[C@H](N4CCN(C(C)=O)CC4)CC3)c3ncnc(N)c23)ccc1NC(=O)c1cc2ccccc2n1C + Cc1nc(NC(=O)N2CCC[C@H]2C(N)=O)sc1-c1ccnc(C(C)(C)C(F)(F)F)c1 [Alpelisib] (partner 2 µM)
Procedure, shortened: as §1

[5] = compound: CO[C@@H]1[C@H](N(C)C(=O)c2ccccc2)C[C@H]2O[C@]1(C)n1c3ccccc3c3c4c(c5c6ccccc6n2c5c31)C(=O)NC4 [Midostaurin] + C[C@]1(O)C[C@@H](c2nc(-c3ccc4ccc(-c5ccccc5)nc4c3)c3c(N)nccn32)C1 [Linsitinib] (partner 1 µM)
Procedure, shortened: as §1

Cell Line: UMC-11
- relative viability ([1]; first compound 0.01 µM): 0.32
- relative viability ([1]; first compound 0.03162 µM): 0.346
- relative viability ([1]; first compound 0.1 µM): 0.241
- relative viability ([1]; first compound 0.3162 µM): 0.177
- relative viability ([2]; first compound 0.0128 µM): 0.285
- relative viability ([2]; first compound 0.04048 µM): 0.336
- relative viability ([2]; first compound 0.128 µM): 0.311
- relative viability ([2]; first compound 1.28 µM): 0.279
- relative viability ([3]; first compound 0.01 µM): 0.734
- relative viability ([3]; first compound 0.03162 µM): 0.591
- relative viability ([3]; first compound 0.1 µM): 0.508
- relative viability ([3]; first compound 0.3162 µM): 0.34
- relative viability ([4]; first compound 0.0128 µM): 0.892
- relative viability ([4]; first compound 0.04048 µM): 0.956
- relative viability ([4]; first compound 0.128 µM): 0.986
- relative viability ([4]; first compound 1.28 µM): 0.746
- relative viability ([5]; first compound 0.01 µM): 0.984
- relative viability ([5]; first compound 0.03162 µM): 0.998
- relative viability ([5]; first compound 0.1 µM): 0.95
- relative viability ([5]; first compound 0.3162 µM): 0.586
